Measurements reported in the supplement of paper PMC10627819.

Experiments:
[1] = tested on: S. aureus DSM 20231; assay: Bliss interaction score (quartile over a dose matrix) (fitness difference); higher = more antagonism (negative = synergy)
How it was run: (§1)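 Fitness is OD595 at stationary-phase entry relative to the plate's robust no-drug mean, capped at 1. Single-drug fitness was inferred from combinations. The Bliss score is observed minus product-expected fitness, summarised by quartiles over technical, biological and donor/recipient replicates.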

[2] = tested on: S. pneumoniae D39V; assay: as above
How it was run: as §1

[3] = tested on: B. subtilis 168; assay: as above
How it was run: as §1

[4] = tested on: S. aureus Newman; assay: as above
How it was run: as §1

[5] = tested on: S. aureus DSM 20231; assay: fitness (endpoint OD595 vs no drug) (fraction); higher = more growth
How it was run: (§2)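 In 384-well plates at 37 °C, cultures began at OD595 0.01 in 30 µl, with 55 µl used for S. pneumoniae. OD595 readings every 30 min for 14 h were corrected by the first reading. Fitness divides the stationary-phase transition optical density by the robust mean of no-drug control wells. The result is capped at 1.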

[6] = tested on: B. subtilis 168; assay: as above
How it was run: as §2

[7] = tested on: S. aureus Newman; assay: as above
How it was run: as §2

[8] = tested on: S. pneumoniae D39V; assay: as above
How it was run: as §2
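Wherever Bliss interaction score (quartile over a dose matrix) is given: first quartile when negative (synergy) and third quartile when positive (antagonism).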

CC[C@H]1OC(=O)[C@H](C)[C@@H](O[C@H]2C[C@@](C)(OC)[C@@H](O)[C@H](C)O2)[C@H](C)[C@@H](O[C@@H]2O[C@H](C)C[C@H](N(C)C)[C@H]2O)[C@](C)(O)C[C@@H](C)CN(C)[C@H](C)[C@@H](O)[C@]1(C)O [Azithromycin] + O=C(O[C@@H]1Cc2c(O)cc(O)cc2O[C@@H]1c1cc(O)c(O)c(O)c1)c1cc(O)c(O)c(O)c1 [EGCG]
Conditions | Bliss interaction score
[1] | -0.13
[2] | 0.043
[3] | -0.0827
[4] | -0.0553

fitness
Conditions | partner 6.25 µg/mL | partner 12.5 µg/mL | partner 25 µg/mL | partner 50 µg/mL
[5], first compound 0.125 µg/mL | – | 0.703 | 0.693 | 0.614
[5], first compound 0.25 µg/mL | – | 0.761 | 0.695 | –
[6], first compound 0.25 µg/mL | 0.859 | 0.508 | 0.246 | –
[6], first compound 0.5 µg/mL | 0.912 | 0.461 | – | –
[6], first compound 1 µg/mL | – | – | 0.0462 | –
[7], first compound 0.125 µg/mL | – | 0.759 | 0.706 | 0.696
[7], first compound 0.25 µg/mL | – | 0.726 | 0.715 | 0.658
[7], first compound 0.5 µg/mL | – | 0.545 | 0.522 | 0.484

[6], first compound 2 µg/mL, one replicate
Conditions | fitness
partner 6.25 µg/mL | 0.387
partner 12.5 µg/mL | 0.229
partner 25 µg/mL | 0.201

Cc1onc(-c2ccccc2)c1C(=O)N[C@@H]1C(=O)N2[C@@H]1SC(C)(C)[C@@H]2C(=O)O [Oxacillin] + CC1=C\[C@@H](O)CC(=O)Cc2nc(co2)C(=O)N2CCC=C2C(=O)O[C@H](C(C)C)[C@H](C)/C=C/C(=O)NC\C=C\1 [Virginiamycin M1]
Conditions | Bliss interaction score
[1] | -0.0341
[2] | 0.114
[3] | 0.0548
[4] | 0.0583

Conditions | fitness
[5], first compound 0.0156 µg/mL, partner 0.0625 µg/mL | 0.803
[5], first compound 0.0156 µg/mL, partner 0.125 µg/mL | 0.808
[5], first compound 0.0156 µg/mL, partner 0.25 µg/mL | 0.775
[5], first compound 0.0312 µg/mL, partner 0.0625 µg/mL | 0.61
[5], first compound 0.0312 µg/mL, partner 0.125 µg/mL | 0.686
[5], first compound 0.0312 µg/mL, partner 0.25 µg/mL | 0.628
[5], first compound 0.0625 µg/mL, partner 0.0625 µg/mL | 0.492
[5], first compound 0.0625 µg/mL, partner 0.125 µg/mL | 0.514
[5], first compound 0.0625 µg/mL, partner 0.25 µg/mL | 0.545
[6], first compound 0.002 µg/mL, partner 0.0625 µg/mL | 0.993
[6], first compound 0.002 µg/mL, partner 0.125 µg/mL | 0.954
[6], first compound 0.002 µg/mL, partner 0.25 µg/mL | 0.977
[6], first compound 0.004 µg/mL, partner 0.0625 µg/mL | 0.98
[6], first compound 0.004 µg/mL, partner 0.125 µg/mL | 0.941
[6], first compound 0.004 µg/mL, partner 0.25 µg/mL | 0.973
[6], first compound 0.008 µg/mL, partner 0.0625 µg/mL | 0.962
[6], first compound 0.008 µg/mL, partner 0.125 µg/mL | 0.905
[6], first compound 0.008 µg/mL, partner 0.25 µg/mL | 0.962
[7], first compound 0.0156 µg/mL, partner 0.0625 µg/mL | 0.755
[7], first compound 0.0156 µg/mL, partner 0.125 µg/mL | 0.761
[7], first compound 0.0156 µg/mL, partner 0.25 µg/mL | 0.763
[7], first compound 0.0312 µg/mL, partner 0.0625 µg/mL | 0.71
[7], first compound 0.0312 µg/mL, partner 0.125 µg/mL | 0.709
[7], first compound 0.0312 µg/mL, partner 0.25 µg/mL | 0.694
[7], first compound 0.0625 µg/mL, partner 0.0625 µg/mL | 0.622
[7], first compound 0.0625 µg/mL, partner 0.125 µg/mL | 0.623
[7], first compound 0.0625 µg/mL, partner 0.25 µg/mL | 0.643
[8], first compound 0.01 µg/mL, partner 0.5 µg/mL | 0.986
[8], first compound 0.01 µg/mL, partner 1 µg/mL | 0.98
[8], first compound 0.01 µg/mL, partner 2 µg/mL | 0.961
[8], first compound 0.02 µg/mL, partner 0.5 µg/mL | 0.964
[8], first compound 0.02 µg/mL, partner 1 µg/mL | 0.965
[8], first compound 0.02 µg/mL, partner 2 µg/mL | 0.913
[8], first compound 0.04 µg/mL, partner 0.5 µg/mL | 0.539
[8], first compound 0.04 µg/mL, partner 1 µg/mL | 0.568

one replicate
Conditions | fitness
[5], first compound 0.0156 µg/mL, partner 0.5 µg/mL | 0.835
[5], first compound 0.0156 µg/mL, partner 1 µg/mL | 0.903
[5], first compound 0.0312 µg/mL, partner 0.5 µg/mL | 0.719
[5], first compound 0.0312 µg/mL, partner 1 µg/mL | 0.746
[5], first compound 0.0625 µg/mL, partner 0.5 µg/mL | 0.517
[5], first compound 0.0625 µg/mL, partner 1 µg/mL | 0.64
[6], first compound 0.075 µg/mL, partner 0.0625 µg/mL | 0.461
[6], first compound 0.075 µg/mL, partner 0.125 µg/mL | 0.639
[6], first compound 0.075 µg/mL, partner 0.25 µg/mL | 0.53
[6], first compound 0.15 µg/mL, partner 0.0625 µg/mL | 0.0434
[6], first compound 0.15 µg/mL, partner 0.125 µg/mL | 0.0511
[6], first compound 0.15 µg/mL, partner 0.25 µg/mL | 0.0511
[6], first compound 0.3 µg/mL, partner 0.0625 µg/mL | 0.04
[6], first compound 0.3 µg/mL, partner 0.125 µg/mL | 0.0604
[6], first compound 0.3 µg/mL, partner 0.25 µg/mL | 0.0635
[7], first compound 0.0156 µg/mL, partner 0.5 µg/mL | 0.815
[7], first compound 0.0156 µg/mL, partner 1 µg/mL | 0.882
[7], first compound 0.0156 µg/mL, partner 2 µg/mL | 0.843
[7], first compound 0.0312 µg/mL, partner 0.5 µg/mL | 0.752
[7], first compound 0.0312 µg/mL, partner 1 µg/mL | 0.78
[7], first compound 0.0312 µg/mL, partner 2 µg/mL | 0.723
[7], first compound 0.0625 µg/mL, partner 0.5 µg/mL | 0.597
[7], first compound 0.0625 µg/mL, partner 1 µg/mL | 0.671
[7], first compound 0.0625 µg/mL, partner 2 µg/mL | 0.676
[8], first compound 0.01 µg/mL, partner 0.15 µg/mL | ≥ 1
[8], first compound 0.01 µg/mL, partner 0.3 µg/mL | ≥ 1
[8], first compound 0.02 µg/mL, partner 0.15 µg/mL | ≥ 1
[8], first compound 0.02 µg/mL, partner 0.3 µg/mL | ≥ 1
[8], first compound 0.04 µg/mL, partner 0.15 µg/mL | 0.994
[8], first compound 0.04 µg/mL, partner 0.3 µg/mL | 0.989
